One may read the viability as a read-out of living cells in per cent, often relative to untreated cells.

Consider 77 molecules from publication PMC12040169 (PLOS Biology, 2025).

The first data set is described as follows: in vitro. The conditions noted are these: human, hela cells.
In the case of `O=C(O)c1n[s+][n-]c1-c1cc([N+](=O)[O-])cc([N+](=O)[O-])c1O` [CBK261584], the viability at 28.5 h, 10 µM came to 97.2%.

Staying with this data set, now noted: human, hela cells, % viability.
`Oc1ccc(CN2CCN(c3ncccn3)CC2)cc1` [CBK261567]: the viability at 28.5 h, 10 µM came out at 105%.
For `O=[N+]([O-])c1ccc(Cl)cc1CN1CCN(C/C=C/c2ccccc2)CC1` [CBK261568], the viability at 28.5 h, 10 µM was determined as 106%.
The same measure, in the same setting: the value for `COc1ccc(CN2CCN(c3ccccn3)CC2)cc1O` [CBK261570] was 90.5%.
Turning to `CN1CCC(N(C)Cc2cc(Cl)ccc2[N+](=O)[O-])CC1` [CBK261576], the viability at 28.5 h, 10 µM stood at 91.1%.
The same measure, in the same setting: then `CCn1c2ccccc2c2cc(CN3CCN(c4ccccc4OC)CC3)ccc21` [CBK261579], with 85.4%.
Consider `CCc1nc2ccccc2c(NC(=O)CN2CCCCCC2)c1C` [CBK261580G], for which the viability at 28.5 h, 10 µM was found to be 90.3%.
Take `COc1cc(CN2CCN(C/C=C/c3ccccc3)CC2)cc(Br)c1O` [CBK261582]: the viability at 28.5 h, 10 µM came out at 101%.
Regarding `Cc1ccc2nc(-c3ccc(/N=C/c4cccc(O)c4O)cc3)sc2c1` [CBK261583], the viability at 28.5 h, 10 µM amounted to 96%.
Consider `NS(=O)(=O)c1ccc(/N=C/c2ccc(OCc3ccccc3)cc2)cc1` [CBK261585], for which the viability at 28.5 h, 10 µM was found to be 98.3%.
The same measure, in the same setting: the value for `O=C(COc1ccc2ccccc2c1)OCC(=O)c1ccc([N+](=O)[O-])cc1` [CBK261586] was 88.2%.
On the same count and under the same terms, the value for `COc1cc(CN2CCc3c([nH]c4ccccc34)C2)c([N+](=O)[O-])cc1OC` [CBK261588] was 90.6%; that for `O=C(Nc1ccc2nc(-c3ccc(-c4nc5ccc(NC(=O)c6cccs6)cc5[nH]4)cc3)[nH]c2c1)c1cccs1` [CBK261590] was 87.1%; that for `O=C(N/N=C/c1ccc([N+](=O)[O-])cc1)c1ccc(O)cc1O` [CBK261591] was 105%.
Consider `CCOc1ccc(NC(=O)C2C3C=CC(O3)C2C(=O)O)cc1` (centres unmarked) [CBK261592], for which the viability at 28.5 h, 10 µM amounted to 91.7%.
Turning to `CCOC(=O)c1c(C)n(-c2ccccc2)c2ccc(O)c(CN(C)C)c12` [CBK261593C], the viability at 28.5 h, 10 µM was determined as 91%.
The same measure, in the same setting: then `NS(=O)(=O)c1ccc(/N=C/c2cccc(OCc3ccccc3)c2)cc1` [CBK261594], with 92.1%; and `O=C(CN1CCCCCC1)N/N=C/c1ccc(F)c(Br)c1` [CBK261596], with 94.7%; and `O=C(O)CCC(=O)Nc1ccc2c(c1)oc1ccccc12` [CBK261597], with 86.3%.
On the same count and under the same terms, the value for `O=C(N/N=C/c1cc([N+](=O)[O-])ccc1Cl)c1ccc(O)c(O)c1` [CBK261599] was 112%; that for `CC(=O)Nc1ccc(C(=O)Nc2ccc(S(N)(=O)=O)cc2)cc1` [CBK261600] was 95.3%.
Take `O=[N+]([O-])c1ccc(Cl)c(C2N(Cc3ccccc3)CCN2Cc2ccccc2)c1` [CBK261601]: the viability at 28.5 h, 10 µM came to 93.4%.
Regarding `Cc1cccc(C(=O)Nc2ccc(-c3nnc(-c4ccc(NC(=O)c5cccc(C)c5)cc4)o3)cc2)c1` [CBK261603], the viability at 28.5 h, 10 µM worked out at 106%.
Turning to `N#CC1=C(N)Oc2cc(N)ccc2C1c1ccc(-c2ccccc2)cc1` (centres unmarked) [CBK261605], the viability at 28.5 h, 10 µM was 91.3%.
Take `COc1cccc(C(=O)NNC(=O)Nc2ccccc2)c1` [CBK261608]: the viability at 28.5 h, 10 µM came to 91.8%.
Same read-out and setting: the value for `CCOC(=O)c1c(C)n(-c2ccc(OC)cc2)c2ccc(O)c(CN(C)C)c12` [CBK261609C] was 88%; that for `CC(C)CC(C(=O)O)N1C(=O)/C(=C2/C(=O)Nc3ccc(Br)cc32)SC1=S` (centres unmarked) [CBK261610] was 84.7%; that for `O=C(Nc1ccc(-c2nc3cc(-c4nc5cc(NC(=O)c6cccs6)ccc5[nH]4)ccc3[nH]2)cc1)c1cccs1` [CBK261614] was 97.6%.
The same measure, in the same setting: then `CCN1CCN(CC(=O)N/N=C/c2ccc(F)cc2)CC1` [CBK261615], with 108%; and `CC(=O)Nc1ccc(/C=N/NC(=O)CN2CCCCCCC2)cc1` [CBK261617], with 88.8%; and `N#Cc1c(NC(=O)CN2CCCCC2)sc2c1CCCC2` [CBK261619], with 89.6%.
Same read-out and setting: then `O=P(O)(COc1ccccc1)COc1ccccc1` [CBK261620], with 88.8%; and `COC(=O)C1=C(C(=O)OC)SC(=C2C(=S)C(C)(C)N(C(=O)c3ccc4ccccc4c3)c3cc(C)ccc32)S1` [CBK261622], with 116%.
Turning to `O=C1/C(=C/NNc2nc3ccccc3s2)Sc2ccccc21` [CBK261627], the viability at 28.5 h, 10 µM turned out to be 96.4%.
On to `Oc1c(-c2ccc(Cl)cc2)c2nc3ccccc3nc2c2ccccc12` [CBK261628], for which the viability at 28.5 h, 10 µM came out at 87.7%.
`Oc1ccc(Br)cc1/C=N/c1ccc(-c2cc(-c3ccc(/N=C/c4cc(Br)ccc4O)cc3)ncn2)cc1` [CBK261630]: the viability at 28.5 h, 10 µM is 115%.
On the same count and under the same terms, then `Cc1ccccc1NC(=O)/C(=C\c1cccnc1)NC(=O)c1ccccc1` [CBK261632], with 93.9%; and `Cc1nc2ccccn2c1-c1csc(Nc2ccc(C(=O)O)cc2)n1` [CBK261634B], with 74.4%.
With `O=[N+]([O-])c1ccc(-c2ccc(/N=C/c3ccco3)cc2)cc1` [CBK261639], the viability at 28.5 h, 10 µM was found to be 92.2%.
The same measure, in the same setting: then `O=C(N/N=C/c1ccccc1)c1ccccn1` [CBK261640], with 92.8%; and `Cc1cccc2cc(/C=C(\C#N)c3nc(-c4cc5ccccc5oc4=O)cs3)c(Cl)nc12` [CBK261642], with 85.4%.
For the molecule `CCOC(=O)C1=C(C(=O)OCC)SC(=C2C(=S)C(C)(C)N(C(=O)c3ccc4ccccc4c3)c3ccccc32)S1` [CBK261643], the viability at 28.5 h, 10 µM amounted to 103%.
Still for that read-out and setting: then `Nc1cccc(Oc2ccc(C(c3ccc(Oc4cccc(N)c4)cc3)(C(F)(F)F)C(F)(F)F)cc2)c1` [CBK261645], with 103%; and `O=C1/C(=C\Nc2cccc3cccnc23)Sc2ccccc21` [CBK261647], with 93.8%.
Turning to `CC1=CC(C)(C)N(CC(=O)c2ccc([N+](=O)[O-])cc2)c2c(C)cccc21` [CBK261652], the viability at 28.5 h, 10 µM was 103%.
On to `Cc1ccc(S(=O)(=O)c2ccc(C)c(S(=O)(=O)NC3CCCCC3)c2)cc1S(=O)(=O)NC1CCCCC1` [CBK261653], for which the viability at 28.5 h, 10 µM was 90%.
Still for that read-out and setting: then `N#CC(c1ccc(O)cc1)N1CCOCC1` (centres unmarked) [CBK261659], with 116%.
For `Oc1c(Cl)cc(Cl)cc1/C=N/c1ccc(-c2nc3ccc(/N=C/c4cc(Cl)cc(Cl)c4O)cc3[nH]2)cc1` [CBK261660], the viability at 28.5 h, 10 µM amounted to 93.4%.
Same read-out and setting: the value for `C/C(=N\NC(=O)c1cccc(Cl)c1)c1ccccc1O` [CBK261665] was 81.4%; that for `O=C(COC(=O)c1cc(S(=O)(=O)N2CCCCC2)c(Cl)cc1Cl)c1ccccc1` [CBK261668] was 101%; that for `NNS(=O)(=O)c1ccc(Oc2ccc([N+](=O)[O-])cc2)cc1` [CBK261669] was 95.9%.
Still for that read-out and setting: then `O=C(Oc1ccc(Cl)cc1)c1cc(S(=O)(=O)N2CCOCC2)ccc1Cl` [CBK261670], with 99.6%; and `NNC(=O)COc1ccc(Cl)cc1Cl` [CBK261671], with 92.6%; and `CCN(CC)Cn1nc(Nc2ccccc2)n(-c2ccccc2)c1=S` [CBK261672], with 87.6%.
For `CCOc1ccccc1/C=N/Nc1ccccc1[N+](=O)[O-]` [CBK261673], the viability at 28.5 h, 10 µM stood at 94.7%.
Same read-out and setting: then `CCOC(=O)Cc1nc2ccccc2[nH]1` [CBK261674], with 102%; and `NC(=O)c1ccccc1/N=C/c1ccc([N+](=O)[O-])o1` [CBK261675], with 105%.
Same read-out and setting: the value for `Cc1cccc(C(=O)NNC(=O)c2cccc(Cl)c2)c1` [CBK261676] was 107%; that for `NC(=O)c1cccc(NC(=O)/C=C/C(=O)O)c1` [CBK261678] was 96.8%.
For `C(=N\c1ccc(-c2nc3ccc(/N=C/c4ccncc4)cc3[nH]2)cc1)/c1ccncc1` [CBK261681], the viability at 28.5 h, 10 µM was 89.8%.
Take `O=C1N/C(=N/N=C/c2ccc(O)cc2)SC1Cc1ccccc1[N+](=O)[O-]` (centres unmarked) [CBK261684]: the viability at 28.5 h, 10 µM came to 91.9%.
On the same count and under the same terms, the value for `O=C(O)C1CCCCN1Cc1ccccc1` (centres unmarked) [CBK261687] was 94.9%; that for `O=C(N/N=C/c1cc(Br)c(Br)o1)c1cccc(F)c1` [CBK261688] was 94.2%; that for `Cc1c(C(c2ccc(C(=O)O)cc2)c2c(C)n(C)n(-c3ccccc3)c2=O)c(=O)n(-c2ccccc2)n1C` [CBK261691] was 102%.
In the case of `Cc1c(C(c2ccc3ccccc3c2)c2c(C)n(C)n(-c3ccccc3)c2=O)c(=O)n(-c2ccccc2)n1C` [CBK261692], the viability at 28.5 h, 10 µM came out at 95.9%.
Take `O=C(COc1ccc(Cl)cc1)NNC(=O)Cc1cccc2ccccc12` [CBK261693]: the viability at 28.5 h, 10 µM worked out at 91.4%.
As for `COc1ccc(C(=O)NNC(=O)/C=C/c2ccc(C(C)C)cc2)cc1` [CBK261697], the viability at 28.5 h, 10 µM came to 101%.
Regarding `COc1ccccc1CNS(=O)(=O)c1ccccc1[N+](=O)[O-]` [CBK261699], the viability at 28.5 h, 10 µM worked out at 102%.
`CC(C)(C)c1ccc(C(=O)NNC(=O)C(=O)Nc2ccccc2)cc1` [CBK261701]: the viability at 28.5 h, 10 µM was determined as 83.1%.
Still for that read-out and setting: the value for `O=C(O)c1c(Br)c(Br)c(Br)c(Br)c1C(=O)NCCc1ccccc1` [CBK261702] was 90.7%.
Same read-out and setting: the value for `COc1ccc(C(=O)NNC(=O)c2cccc(Cl)c2)cc1OC` [CBK261704] was 91.4%.
As for `O=C(O)C1CCCCC1C(=O)NCCc1ccccc1` (centres unmarked) [CBK261707], the viability at 28.5 h, 10 µM was determined as 94%.
Same read-out and setting: then `O=C(O)CCCC(=O)NCc1cccnc1` [CBK261708], with 106%.

The same data set, now with this note: human, hela cells, % viability, bulk resorufin, single well.
As for `O=[N+]([O-])c1ccccc1CN1CCN(c2ccccc2Cl)CC1` [CBK261572], the viability at 28.5 h, 10 µM worked out at 92%.
The same measure, in the same setting: the value for `CCOc1ccccc1CN1CCN(C)CC1` [CBK261577] was 91%; that for `O=C1NC(=O)C(=CNCCc2c[nH]c3ccccc23)C(=O)N1` [CBK261635] was 93.2%.
On to `O=C1NC(=O)N(c2ccc(Cl)cc2)C(=O)/C1=C\NCCCO` [CBK261648], for which the viability at 28.5 h, 10 µM amounted to 90.2%.
